Here are results for three compounds from patent US20110112053A1, “PHARMACOLOGICAL TARGETING OF VASCULAR MALFORMATIONS” (University of Utah Research Foundation, priority 2008, published 2011).

Data set [1] addresses geranylgeranyltransferase I (GGTase I) (Homo sapiens, UniProt P53609). To be noted: cited from earlier work.
Data set [2] concerns CCM2-depleted HMVECs. As to the kind of experiment: Phalloidin staining for actin stress fibers. Type of data set: cell-based, human. As to the method: Immunofluorescent Cell Staining. Glass chamber slides were coated with human fibronectin (Biomedical Technologies, Inc.), and transfected cells were seeded at 50,000 cells per well. For the RhoA and ROCK experiment, cells were treated four days after seeding with 40 μg/mL of cell-permeable C3 transferase (Cytoskeleton, Inc.) or 20 μM Y-27632 for 4 hours. For the simvastatin experiment, cells were treated three days after seeding with 40 μM simvastatin (Calbiochem) or equivalent amounts of ethanol in growth media for 24 hours. Cells were fixed in 4% formaldehyde and incubated with an antibody against β-catenin (BD Biosciences). Fluorescent secondary antibody (Molecular Probes) was used to visualize β-catenin staining Actin cytoskeleton was visualized using fluorescently-conjugated phalloidin (Molecular Probes). Images were obtained with an Olympus FV300 confocal microscope.

Another data set relates to mice. To be noted: mouse, in vivo.
In another data set the test system is JNK. As to the kind of experiment: Immunoblot for phosphorylated and total JNK. It is filed as cell-based, human. Particulars: 10 μM Y-27632 for 30 min prior to cell lysis. As to the method:
MAPK Profiling. siRNA transfected cells were lysed in RIPA buffer (50 mM Tris pH 7.4, 150 mM NaCl, 1% NP-40) supplemented with protease and phosphatase inhibitors. Lysates were then analyzed by western blotting. Antibodies to phospho-JNK and total JNK were from Santa Cruz Biotechnology. Antibodies to phospho-ERK, phospho-p38, phospho-MKK4, phospho-MKK7, total ERK, total p38, total MKK4, and total MKK7 were from Cell Signaling Technology. The effect of ROCK inhibitor on JNK was tested by treating cells with 10 μM Y-27632 for 30 min prior to cell lysis. The effect of simvastatin on JNK was determined by treating cells with 10 μM simvastatin for 24 h prior to cell lysis.

The test system of data set [3] is CCM2-depleted HMVECs. The data set is described as follows: Transendothelial electrical resistance (barrier function). It is filed as cell-based, human. Particulars: C3 transferase 1 μg ml^−1. As to the method: Transendothelial Resistance. An electrode culture array (Applied Biophysics) was coated with human fibronectin and transfected cells were seeded at 50,000 cells per well. Three days after seeding, cells were serum-starved in endothelial basal medium-2 with 0.2% BSA overnight. Transendothelial resistance was measured with an electric cell-substrate impedance sensing system (Applied Biophysics). Cell-permeable C3 transferase (1 μg ml^−1) was added to inhibit RHOA. For basal resistance, 40 wells each were measured for Rho inhibition experiments, six control wells each and ten C3 transferase wells each were measured.

As to `CC(C)C[C@H](NC(=O)c1ccc(NCc2c[nH]cn2)cc1-c1cccc2ccccc12)C(=O)O.O=C(O)C(F)(F)F` [GGTI-2133, N-[[4-(Imidazol-4-yl)methylamino]-2-(1-naphthyl)benzoyl]leucine trifluoroacetate salt], the “selectivity for GGTase I over farnesyltransferase” value in data set [1] is listed as 140 fold.
As to `C[C@@H](N)[C@H]1CC[C@H](C(=O)Nc2ccncc2)CC1` [Y-27632, (R)-(+)-trans-N-(4-Pyridyl)-4-(1-aminoethyl)-cyclohexanecarboxamide], the “actin stress fiber response” value in the data set with CCM2-depleted HMVECs [2] (20 μM Y-27632, 4 hours) was “blocked the stress fiber response”. Besides, in the data set on mice, the tolerability in mice result is given as “do not tolerate”. Moreover, in the data set with JNK, the “activation (phosphorylation) of JNK” value is recorded as “decreased the activation of JNK”.
Regarding C3 transferase, in the data set on CCM2-depleted HMVECs [2] (40 μg/mL cell-permeable C3 transferase, 4 hours), the “actin stress fiber response” value was “blocked the stress fiber response”. The “barrier function (transendothelial resistance)” value in the data set on CCM2-depleted HMVECs [3] is “significantly rescue barrier function”.
